# “Also recorded” adds a separate entry of the source.
# Assays:
# [1] = tested on: Primary human dermal microvascular endothelial cells; experiment: ECIS steady-state barrier function of confluent endothelial monolayers; type: cell-based; details: for endothelial barrier function (ECIS) compared to other Src inhibitors / endothelial barrier function (ECIS) compared to benchmark agents: bosutinib 300 nM; for endothelial barrier function (ECIS) compared to other Src inhibitors: dasatinib 300 nM, PP2 10 μM, monitored ~22 hours, FIG. 7; for endothelial barrier function (ECIS) compared to benchmark agents: HGF 100 ng/ml (1200 nM), APC 500 nM, monitored ~18 hours, FIG. 6
# Protocol: (§1) Primary human dermal microvascular endothelial cells were grown to confluence. […] Data are mean±SEM of three independent experiments.
# as §1, §1
# [2] = tested on: Primary bovine aortic endothelial cells; experiment: ECIS barrier function, dose response over 72 hours; type: cell-based; details: FIG. 2; for vascular barrier function (ECIS resistance, normalized to 1): single doses, 10 nM to 3 μM, monitored 72 hours
# Protocol: Primary bovine aortic endothelial cells were grown to confluence. Steady state barrier function was monitored by ECIS for 24 hours and normalized to a value of 1. […] Data are mean±SEM of three independent experiments.
# [3] = tested on: Primary human dermal microvascular endothelial cells; experiment: Thrombin- and histamine-induced vascular permeability assays (ECIS), pretreatment; type: cell-based; details: for protection to histamine challenge / protection to thrombin challenge: 300 nM for 30 min; for protection to histamine challenge: then histamine 300 μM, FIG. 3B; for protection to thrombin challenge: then thrombin 2.5 U/ml, FIG. 3A
# Protocol: For all assays, primary human dermal microvascular endothelial cells were grown to confluence. Steady state barrier function was monitored by ECIS and normalized to a value of 1. […] Data are mean±SEM of three independent experiments.
# [4] = tested on: Primary human dermal microvascular endothelial monolayers; experiment: Confocal imaging of actin and VE-cadherin junctions during permeability challenge; type: cell-based
# Description: Samples were fixed and stained for actin (i) and the junctional marker VE-cadherin (ii) before imaging by confocal microscopy. To assess quality of endothelial junctions (see B), image thresholding was applied to the VE-cadherin images to delineate the junctions (line traces in [iii]). […] Scale bar represents 10 μm.
# Primary human dermal microvascular endothelial monolayers were challenged with either Thrombin (Thr) or Histamine (His) as described above for FIG. 5A. Quantitative analysis of (i) total junctional area per field and (ii) VE-cadherin intensity within junctions were performed to assess maintenance of junctional integrity. […] Data are mean±SEM of three independent experiments.
# [5] = tested on: FIP rats; experiment: Polymicrobial sepsis model (feces-induced peritonitis; FIP), intravital microscopy of the hindlimb; type: in vivo, rat
# Protocol: Disease onset was initiated by tail vein injection of a solution of saline and rat feces. […] Microvascular parameters were measured through intravital microscopy of the hindlimb at baseline, 3 hr and 5 hr post FIP onset. […] Data are representative of two separate pilot experiments.
# [6] = molecular target: Src (Homo sapiens, UniProt P12931); details: cited from earlier work
# Chain of Src (P12931 whole entry, species assumed): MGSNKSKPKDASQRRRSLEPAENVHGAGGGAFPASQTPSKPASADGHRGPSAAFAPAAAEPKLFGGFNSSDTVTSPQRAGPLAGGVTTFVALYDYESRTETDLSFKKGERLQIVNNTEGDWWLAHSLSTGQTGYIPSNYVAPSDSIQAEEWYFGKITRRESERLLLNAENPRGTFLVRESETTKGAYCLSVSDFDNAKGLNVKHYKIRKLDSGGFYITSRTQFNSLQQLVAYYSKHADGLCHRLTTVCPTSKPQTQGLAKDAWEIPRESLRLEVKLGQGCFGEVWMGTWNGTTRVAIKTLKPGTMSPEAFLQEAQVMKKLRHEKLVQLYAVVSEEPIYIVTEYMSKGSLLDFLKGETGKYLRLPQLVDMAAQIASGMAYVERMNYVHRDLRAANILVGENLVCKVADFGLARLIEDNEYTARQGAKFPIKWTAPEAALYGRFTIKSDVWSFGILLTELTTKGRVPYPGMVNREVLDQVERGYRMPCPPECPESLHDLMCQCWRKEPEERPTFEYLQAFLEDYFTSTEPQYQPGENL
# [7] = imaging-based analysis, FIGS. 5A and 5B
molecule,measurement,setting,value
"CC(C)(C)n1nc(-c2ccc(Cl)cc2)c2c(N)ncnc21 [PP2, 3-(4-chlorophenyl)-1-(1,1-dimethylethyl)-1H-pyr-azolo[3,4-d]pyrimidin-4-amine]",endothelial barrier function (ECIS) compared to other Src inhibitors,[1],"greatly reduced, endothelial barrier function; also recorded: sustained decreases in barrier function"
COc1cc(Nc2c(C#N)cnc3cc(OCCCN4CCN(C)CC4)c(OC)cc23)c(Cl)cc1Cl [bosutinib],endothelial barrier function (ECIS) compared to benchmark agents,[1],exhibits unprecedented efficacy and duration of action
same,endothelial barrier function (ECIS) compared to benchmark agents,[1]; listed as Bosutinib,significant and sustained increase in barrier function
same,endothelial barrier function (ECIS) compared to other Src inhibitors,[1],sustained increase in barrier function
same,"vascular barrier function (ECIS resistance, normalized to 1)","[1]; single 300 nM dose, monitored 3 hours, FIG. 1",profoundly enhanced base-line barrier properties; also recorded: increases in resistance
same,duration of sustained barrier enhancement,[2]; longest experiments conducted thus far,> 72 h
same,"vascular barrier function (ECIS resistance, normalized to 1)",[2],"sustained, dose-dependent increase in vascular barrier function"
same,"vascular barrier function (ECIS resistance, normalized to 1)",[2]; listed as Bosutinib,sustained barrier enhancement effects in a dose-dependent manner
same,protection to histamine challenge,[3],100%
same,protection to thrombin challenge,[3],~50%
same,protection against pro-leak stimuli by pretreatment,"[3]; thrombin, histamine, Ang-II and TNF-α",conferred profound protection against a range of pro-leak stimuli
same,endothelial junction continuity and gap formation,"[4]; 300 nM 30 min pretreatment, thrombin 2.5 U/ml or histamine 300 μM for 30 min, FIG. 5A",maintains continuous junctions and cortical actin during challenge
same,VE-cadherin and cortical actin at the intercellular junctions,[4]; [7],increase in VE-cadherin and cortical actin at the intercellular junctions
same,actin stress fibers in endothelial cells,[4]; [7],decrease in actin stress fibers
same,total junctional area per field,"[4]; thrombin or histamine challenge, FIG. 5B",significantly increased junctional area compared to vehicle controls
same,percent oxygen saturation,"[5]; 10 mg/kg loading dose at 30 min, 5 mg/kg every two hours, tail vein, FIG. 8C","effectively preserved; also recorded: similarly maintained in bosutinib-treated, but not control, FIP rats"
same,capillary diameter,"[5]; 10 mg/kg loading dose at 30 min, 5 mg/kg every two hours, tail vein, FIG. 8D",unaltered; also recorded: unchanged in both control and bosutinib rats
same,red blood cell (RBC) velocity,"[5]; 10 mg/kg loading dose at 30 min, 5 mg/kg every two hours, tail vein, baseline, 3 hr and 5 hr post FIP onset, FIG. 8A","rapidly decline following sepsis onset in control rats, but not in bosutinib-treated rats"
same,RBC supply rate,"[5]; 10 mg/kg loading dose at 30 min, 5 mg/kg every two hours, tail vein, baseline, 3 hr and 5 hr post FIP onset, FIG. 8B","rapidly decline following sepsis onset in control rats, but not in bosutinib-treated rats"
same,microvascular flow,"[5]; pilot studies, septic rats, FIGS. 8A and 8B",effectively preserved
same,efficacy against Src kinase,[6],low nanomolar range
"Cc1ccc(NC(=O)c2ccc(CN3CCN(C)CC3)cc2)cc1Nc1nccc(-c2cccnc2)n1 [imatinib, Imatinib]",protection to histamine challenge,[3],5-10%
same,protection to thrombin challenge,[3],5-10%
activated protein C [APC],endothelial barrier function (ECIS) compared to benchmark agents,[1],increase in barrier function that was relatively minor in both magnitude and duration
hepatocyte growth factor [HGF],endothelial barrier function (ECIS) compared to benchmark agents,[1],"initially promoted a similar increase, which was rapidly reversed after ˜20 minutes leading ultimately to a sustained decrease in barrier function"
